Test results as given in paper PMC6151407 (Molecules : A Journal of Synthetic Chemistry and Natural …, 2017).
Values after ≈ are worked out from the molar mass of the structure shown. Read-outs that look alike come from different tables or passages of the source.

How the values were obtained:
AGE formation = assay: Inhibition of AGE formation (bovine serum albumin with fructose and glucose, fluorescence); type: biochemical; conditions: 60 °C for 2 days, pH 7.4, mean ± S.D. (n = 3); for IC50: isolated compounds, read-out: IC50 AGEs Formation
Experimental: Inhibition of AGE formation was measured with a spectrophotometric method developed previously. All tested samples were dissolved in 10% DMSO at five different final concentrations (10–500 µg/mL for extracts and fractions or 10–500 µM for isolated constituents). The assay mixture contained bovine serum albumin (10 mg/mL), 50 mM phosphate buffer (pH 7.4) with 0.02% sodium azide, and 0.4 M fructose and glucose. The reaction was incubated at 60 °C for 2 days. After incubating, fluorescence was measured at an excitation wavelength of 350 nm and emission of 450 nm in a black 96-well plate. Aminoguanidine (AG), a typical inhibitor of AGE formation, was used as a positive control. The inhibitory activity was calculated with the following formula: (Ac − As/Ac) × 100, where Ac is the fluorescence of the control, and As is the fluorescence of the sample.

[1] = biological target: T1, electric eel AChE (EC3.1.1.7) (Electrophorus electricus, UniProt O42275); assay: biochemical
T1 construct: purchased Sigma-Aldrich Chemical Company (St. Louis, MO, USA)
Experimental: (§1) n-Hexane (Hx), ethyl acetate (EA), n-butanol (BuOH), methanol (MeOH), ethanol (EtOH), and distilled water were used for extraction, fractionation, and open column chromatography. Open column chromatography used Sephadex LH-20 (25–100 μm; Pharmacia, Stockholm, Sweden), MCI CHP 20P (Supelco, St. Louis, MO, USA), and ODS gel (400–500 mesh; Waters, Milford, MA, USA). Dimethyl sulfoxide-d6 (DMSO-d6) and chloroform-d (CDCl3) were used for the NMR solution. MS was performed with ultra-high performance liquid chromatography and high-resolution mass spectrometry (UHPLC-HRMS) coupled with electrospray ionization hybrid linear trap-quadruple-Orbitrap MS (ESI/LTQ-Orbitrap) on an Ultimate 3000 rapid separation liquid chromatography (RSLC) system (Thermo, Darmstadt, Germany). ^1H- and ^13C-nuclear magnetic resonance (NMR) spectra were collected at 600 and 150 MHz, respectively, with a JEOL spectrometer. Chemical shifts are expressed as parts per million (ppm) on the δ scale, and coupling constants (J) are shown in Hertz. HPLC was conducted with Empower Pro 2.0 software (Waters, Milford, MA, USA), and determination was performed with a Waters 2695 system pump and Waters 996 Photodiode array detector (Waters, Milford, MA, USA). The separation column was a Waters Sunfire™ C18 column (4.6 × 250 mm, 5 μm). HPLC-grade solvents, such as acetonitrile (ACN), methanol (MeOH), and distilled water (H2O), were purchased from J. T. Baker® (Phillipsburg, PA, USA). HPLC-grade phosphoric acid and dimethyl sulfoxide (DMSO) were obtained from DEAJUNG Chemical (Siheung, Gyeonggi, Korea). Reagents and solvents including electric eel AChE (EC3.1.1.7), horse serum BChE (EC3.1.1.8), acetylthiocholine iodide (ACh), butyrylthiocholine chloride (BCh), 5,5′-dithiobis [2-nitrobenzoic acid] (DTNB), berberine, bovine serum albumin, aminoguanidine (AG), glucose, and fructose were purchased from Sigma-Aldrich Chemical Company (St. Louis, MO, USA). The BACE1 FRET assay kit (β-secretase) was purchased from PanVera Co. (Madison, WI, USA).
(§2) ChE activity was detected by AChE- or BChE-mediated hydrolysis of […] for 15 min to form thiocholine and the yellow 5-thio-2-nitrobenzoate anion. The result was quantified by measuring the absorbance 412 nm. The assay mixture contained 0.1 M potassium phosphate buffer (pH 7.8), 0.3 U/mL AChE or BChE, 0.5 mM DTNB, 0.6 mM ACh or BCh, and the sample for a total volume of 0.2 mL. All tested samples were dissolved in 10% DMSO at five different final concentrations (10–500 µg/mL for extracts and fractions or 10–500 µM for isolated constituents). The reaction was performed in a 96-well plate. […] Inhibitory activity was calculated with the following formula: (Ac − As/Ac) × 100, where Ac is the change in absorbance for the control after 15 min and As is the change in absorbance for the sample after 15 min.

[2] = biological target: T2, horse serum BChE (EC3.1.1.8) (Equus caballus, UniProt P81908); assay: biochemical
T2 construct: horse serum BChE (EC3.1.1.8); purchased Sigma-Aldrich Chemical Company (St. Louis, MO, USA); host or cells: horse serum
Experimental: as §1, with “(DTNB), berberine, bovine serum albumin, aminoguanidine (AG), glucose, and fructose were purchased from Sigma-Aldrich Chemical Company (St. Louis, MO, USA).” left out
as §2

BACE1 = BACE1 (Homo sapiens, UniProt P56817); assay: BACE1 FRET assay kit (β-secretase) inhibition; type: biochemical; conditions: isolated compounds; 60 min, room temperature, pH 4.5; mean ± S.D. (n = 3)
Experimental: as §1, with “(DTNB), berberine, bovine serum albumin, aminoguanidine (AG), glucose, and fructose were purchased from Sigma-Aldrich Chemical Company (St. Louis, MO, USA).” left out
BACE1 inhibition was measured with a commercially available spectrophotometric method according to the manufacturer’s recommended protocol. The assay mixture contained 50 mM sodium acetate buffer (pH 4.5), 1.0 U/mL BACE1, substrate (750 nM Rh-[…]-Quencher in 50 mM ammonium bicarbonate), and sample. […] The reaction was incubated for 60 min at room temperature in the dark. BACE1 activity was determined by measuring the proteolysis of two fluorophores (Rh-[…]-Quencher) to form a fluorescent donor (Rh-EVNL) with an excitation of 545 nm and emission of 585 nm in a black 96-well plate. […] Inhibition was calculated with the following formula: (Ac − As/Ac) × 100, where Ac is the change in fluorescence for the control after 60 min, and As is the change in fluorescence for the sample after 60 min.

[3] = isolated compounds, 15 min, pH 7.8, mean ± S.D. (n = 3), read-out: IC50 AChE (converted)
[4] = isolated compounds, 15 min, pH 7.8, mean ± S.D. (n = 3), read-out: IC50 BChE

BACE1, sequence (P56817 46-501): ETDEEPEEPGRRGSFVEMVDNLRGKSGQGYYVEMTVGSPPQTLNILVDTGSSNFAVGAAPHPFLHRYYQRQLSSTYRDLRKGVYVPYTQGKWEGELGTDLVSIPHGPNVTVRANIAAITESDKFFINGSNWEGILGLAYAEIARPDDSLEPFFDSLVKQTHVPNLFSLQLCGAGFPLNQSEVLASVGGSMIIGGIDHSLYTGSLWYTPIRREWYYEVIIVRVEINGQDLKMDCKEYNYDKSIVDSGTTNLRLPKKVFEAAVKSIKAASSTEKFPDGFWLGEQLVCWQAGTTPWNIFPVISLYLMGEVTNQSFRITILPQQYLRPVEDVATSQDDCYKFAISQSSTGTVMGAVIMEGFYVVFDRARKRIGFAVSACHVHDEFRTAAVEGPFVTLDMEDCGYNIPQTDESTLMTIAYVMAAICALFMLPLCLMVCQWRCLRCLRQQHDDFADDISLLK
T2 sequence (P81908 whole entry): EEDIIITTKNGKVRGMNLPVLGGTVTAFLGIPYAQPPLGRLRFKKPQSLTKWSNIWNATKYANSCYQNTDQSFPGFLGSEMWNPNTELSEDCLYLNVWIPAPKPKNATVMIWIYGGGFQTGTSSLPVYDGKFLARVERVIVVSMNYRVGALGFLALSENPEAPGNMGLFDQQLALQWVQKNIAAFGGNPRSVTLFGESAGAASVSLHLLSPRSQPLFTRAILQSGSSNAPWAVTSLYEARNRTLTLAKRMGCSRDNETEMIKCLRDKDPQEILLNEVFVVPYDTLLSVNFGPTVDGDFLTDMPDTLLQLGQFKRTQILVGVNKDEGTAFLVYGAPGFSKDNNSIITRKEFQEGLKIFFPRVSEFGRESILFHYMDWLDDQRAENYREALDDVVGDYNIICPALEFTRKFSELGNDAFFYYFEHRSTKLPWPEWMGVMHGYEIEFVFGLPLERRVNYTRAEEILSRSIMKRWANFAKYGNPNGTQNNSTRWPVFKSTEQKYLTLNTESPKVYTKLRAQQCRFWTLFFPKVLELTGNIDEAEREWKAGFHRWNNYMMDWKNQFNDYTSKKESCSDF
T1 sequence (O42275 24-633): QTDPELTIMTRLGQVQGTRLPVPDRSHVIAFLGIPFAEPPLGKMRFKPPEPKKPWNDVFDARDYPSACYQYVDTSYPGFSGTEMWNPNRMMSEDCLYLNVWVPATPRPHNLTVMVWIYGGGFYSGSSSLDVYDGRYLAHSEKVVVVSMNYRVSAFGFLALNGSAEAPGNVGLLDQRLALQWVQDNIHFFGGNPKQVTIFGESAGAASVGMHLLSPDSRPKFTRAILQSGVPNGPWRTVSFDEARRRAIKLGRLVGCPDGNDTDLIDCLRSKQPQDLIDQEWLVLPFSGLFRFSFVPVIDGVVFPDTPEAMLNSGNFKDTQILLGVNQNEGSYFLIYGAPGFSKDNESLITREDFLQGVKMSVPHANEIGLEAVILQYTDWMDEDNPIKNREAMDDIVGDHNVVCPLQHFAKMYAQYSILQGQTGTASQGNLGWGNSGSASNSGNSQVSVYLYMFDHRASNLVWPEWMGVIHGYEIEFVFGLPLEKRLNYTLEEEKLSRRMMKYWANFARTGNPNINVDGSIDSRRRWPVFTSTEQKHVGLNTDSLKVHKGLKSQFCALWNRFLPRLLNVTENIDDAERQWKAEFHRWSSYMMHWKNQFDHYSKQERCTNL

| SMILES | IC50 AGE Formation (AGE formation; extracts and fractions) | IC50 (AGE formation) | IC50 ([1]; extracts and fractions, 15 min, pH 7.8, mean ± S.D. (n = 3), read-out: IC50 AChE (converted)) | IC50 [1, 3] | IC50 [2, 4] | IC50 (BACE1) | IC50 ([1]; IC50 AChE) | IC50 ([2]; IC50 BChE) |
| --- | --- | --- | --- | --- | --- | --- | --- | --- |
| N=C(N)NN [AG, aminoguanidine, reference compound] | 104.87 ± 6.94 µg/mL (≈ 1420 µM) | 762 ± 69.1 µM |  |  |  |  |  |  |
| COc1ccc2cc3[n+](cc2c1OC)CCc1cc2c(cc1-3)OCO2 [Berberine, berberine, reference compound] |  |  | 0.416 µM | 0.42 ± 0.03 µM |  |  |  |  |
| COc1c(O)ccc2c1C(=O)c1ccccc1C2=O [Compound 1, alizarin-1-methyl ether] |  | 292.4 ± 2.28 µM |  | 175 ± 10.7 µM | 450 ± 8.82 µM | 192 ± 7.32 µM |  |  |
| COc1c(O)cc2c(c1OC)C(=O)c1ccccc1C2=O [Compound 2, 1,2-dimethoxy-3-hydroxy anthraquinone] |  | 438 ± 23.9 µM |  | 147 ± 13.3 µM | 442 ± 10.6 µM | 115 ± 21.6 µM |  |  |
| COc1ccc2c(c1)C(=O)c1ccccc1C2=O [Compound 3, 2-methoxy anthraquinone] |  | 88.4 ± 3.28 µM |  | 187 ± 20.1 µM | 230 ± 5.97 µM | 9.29 ± 1.92 µM |  |  |
| COc1cc2c(cc1CO)C(=O)c1ccccc1C2=O [Compound 4, 2-hydroxymethyl-3-methoxy anthraquinone] |  | 530 ± 15.5 µM |  | 27 ± 1.49 µM | > 500 µM | > 200 µM |  |  |
| O=C1c2ccccc2C(=O)c2cc(CO)c(O)cc21 [Compound 5, 2-hydroxymethyl-3-hydroxy anthraquinone] |  | 355 ± 12 µM |  | 19.1 ± 3.58 µM | 459 ± 13.1 µM | > 200 µM |  |  |
| COc1c(C)c(O)cc2c1C(=O)c1ccccc1C2=O [Compound 6, rubiadin-1-methyl ether] |  | > 1000 µM |  | 87.2 ± 6.56 µM | > 500 µM | 25.9 ± 2.11 µM |  |  |
| O=C1c2ccccc2C(=O)c2c(O)cc(CO)cc21 [Compound 7, 1-hydroxy-3-hydroxymethyl anthraquinone] |  |  |  | 96.4 ± 17.2 µM | > 500 µM |  |  |  |
| Cc1c(O)cc2c(c1O)C(=O)c1ccccc1C2=O [Compound 8, rubiadin] |  | 522 ± 10.1 µM |  | 44.3 ± 12.2 µM | > 500 µM | 19.8 ± 3.05 µM |  |  |
| COc1cc2ccc(=O)oc2cc1O [Compound 9, scopoletin] |  | 5.43 ± 0.11 µM |  | 236 ± 21.2 µM | 50.4 ± 1.61 µM | > 200 µM |  |  |
| CC[C@H](CC[C@@H](C)[C@H]1CC[C@H]2[C@@H]3CC=C4C[C@@H](O)CC[C@]4(C)[C@H]3CC[C@]12C)C(C)C [Compound 10, β-sitosterol] |  |  |  |  |  |  | > 500 µM | > 500 µM |
